Experiments:
human NK-3 receptor [1] = target: T1, human NK-3 receptor (Homo sapiens, UniProt P29371); test: 3H-SB222200 binding competition assay with human NK-3 receptor; set-up: expressed in transfected cells; membranes; settings: read-out: Competitive binding assay with human NK-3 receptor hNK-3 (Ki)
T1 sequence (P29371 1-465): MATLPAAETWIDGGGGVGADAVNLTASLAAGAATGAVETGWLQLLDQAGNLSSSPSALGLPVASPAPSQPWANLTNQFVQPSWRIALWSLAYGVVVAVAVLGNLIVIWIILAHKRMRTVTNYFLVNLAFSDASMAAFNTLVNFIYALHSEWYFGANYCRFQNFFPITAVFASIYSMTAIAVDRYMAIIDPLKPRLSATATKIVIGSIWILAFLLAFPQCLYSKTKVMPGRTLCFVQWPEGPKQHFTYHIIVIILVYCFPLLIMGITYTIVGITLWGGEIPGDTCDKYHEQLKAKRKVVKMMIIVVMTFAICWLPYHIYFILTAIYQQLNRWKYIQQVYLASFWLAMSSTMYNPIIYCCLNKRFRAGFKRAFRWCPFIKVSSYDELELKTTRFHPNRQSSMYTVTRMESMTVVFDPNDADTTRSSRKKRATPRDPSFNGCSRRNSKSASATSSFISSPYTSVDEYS
Protocol: The affinity of compounds of the invention for the human NK-3 receptor was determined by measuring the ability of compounds of the invention to competitively and reversibly displace a well-characterized NK-3 radioligand in a concentration-dependent manner.
Membranes were prepared from Chinese hamster ovary recombinant cells stably expressing the human NK-3 receptor. The membranes were incubated with 5 nM ^3H-SB222200 (ARC) in a HEPES 25 mM/NaCl 0.1M/CaCl2 1 mM/MgCl2 5 mM/BSA 0.5%/Saponin 10 μg/ml buffer at pH 7.4 and various concentrations of compounds of the invention. The amount of ^3H-SB222200 bound to the receptor was determined after filtration by the quantification of membrane associated radioactivity using the TopCount-NXT reader (Packard).

human NK-3 receptor [2] = target: T1, human NK-3 receptor; test: cell-based
Protocol: Aequorin Assay with Human NK-3 Receptor.
The efficacy of compounds of the invention to inhibit NKA-mediated NK-3 receptor activation was assessed by an in vitro Aequorin functional assay. Chinese Hamster Ovary recombinant cells expressing the human NK-3 receptor and a construct that encodes the photoprotein apoaequorin were used for this assay. In the presence of the cofactor coelenterazine, apoaequorin emits a measurable luminescence that is proportional to the amount of intracellular (cytoplasmic) free calcium.
The antagonist activity of compounds of the invention is measured following pre-incubation (3 minutes) of the compound (at various concentrations) with the cells, followed by addition of the reference agonist (NKA) at a final concentration equivalent to the EC80 (3 nM) and recording of emitted light (FDSS 6000 Hamamatsu) over the subsequent 90-second period. The intensity of the emitted light is integrated using the reader software. Compound antagonist activity is measured based on the concentration-dependent inhibition of the luminescence response to the addition of Neurokinin A.

[2H]C([2H])([2H])c1nsc(-c2nnc3n2CCN(C(=O)c2ccc(F)cc2)[C@@H]3C)n1 [Deuterated fezolinetant, (R)-(4-fluorophenyl)-(8-methyl-3-(3-(methyl-d3)-1,2,4-thiadiazol-5-yl)-5,6-dihydro-[1,2,4]trizolo[4,3-a]pyrazin-7(8H)-yl)methanone]
Ki (human NK-3 receptor [1]): 17 nM
IC50 (human NK-3 receptor [2]): 13 nM

Source: US11078203B2 (OGEDA SA, priority 2017, dated 2021)
